Series [1] has as its system BMRPA1 cells. In words: Cell growth at reduced serum (crystal violet assay). The series is classed as cell-based, rat. The following applies: NNK-transformed vs untreated BMRPA1 cells, 12 days. The method, then:
To measure cell growth at 10% FBS, cells were seeded at 5×10^4 cell/60 mm TCD containing 4 ml of cRPMI-10% FBS. Every 3 d, triplicate TCDs were removed for each cell line under study, the cells were released with trypsin-EDTA, and counted in the presence of trypan blue. To assess the effect of cRPMI containing reduced FBS concentrations on cell growth, equal numbers (1.5×10^4 cell/ml/well) of NNK-treated and untreated BMRPA1 cells were seeded in triplicate wells of 24 well TCDs. The cells were allowed to adhere overnight in cRPMI 10% FBS, washed with PBS, and reincubated with cRPMI containing the indicated % FBS. Cell growth was evaluated by a modification of the crystal violet relative proliferation assay (Serrano, 1997). Briefly, the cells were washed with PBS, fixed in 10% buffered formalin followed by rinsing with distilled water. The cells were then stained with 0.1% Crystal Violet for 30 min at room temperature (RT), washed with dH2O, and dried. The cell-associated dye was extracted with 1 ml 10% acetic acid, aliquots were diluted 1:2 with dH2O, and transferred to 96-well microtiter plates for OD600nm measurements. The cell growth was calculated relative to the OD600nm values read at 24 h. […]

Series [2] deals with BMRPA1 cells. In words: NNK exposure: effects on BMRPA1 morphology. The series is classed as cell-based, rat. The following applies: for cytotoxic changes: one 16 hour exposure. As for the experimental part:
All preparations of the carcinogen-containing media were made in a separate laboratory within a NCI-designed and certified chemical hood using prescribed protective measures. 4-(N-nitrosmethylamino)-1-(3-pyridyl)-1-butanone (NNK, American Health Foundation, N.Y.) was prepared as a stock solution of 10 mg NNK in PBS and added to FBS-free cRPMI to make final concentrations of 100, 50, 10, 5, and 1 μg/mil. BMRPA1 cells at passage 36 (p36) were seeded at 10^5/60 mm TCDs and allowed to grow for 6 d. At this time the medium was removed, and the cells were washed 2× with prewarmed (37° C.), FBS-free cRPMI before they were treated with FBS-free cRPMI (4 ml/TCD) containing the different concentrations of NNK. A 6th set of TCDs containing BMRPA1 cells was incubated in FBS-free cRPMI without NNK and was used as controls. The eight TCDs used for each of the six sets of different culture conditions were returned to the 37° C. and 95% air-5% CO2 incubator. After 16 h, the NNK-containing medium was removed from all TCDs and the cells were washed 3× with PBS followed by addition of fresh cRPMI-10% FBS (4 ml/TCD), and the incubation continued. Control cultures without NNK were processed in parallel. The cells were fed every 2 d by replacing ½ of the spent medium with fresh cRPMI-10% FBS. At full confluency the cells were collected from all TCDs, the cells in each group were pooled, and passaged at 2×10^4 into fresh TCDs.
With the purpose of determining whether such changes are induced by a single exposure to NNK and at relatively small NNK concentrations, BMRPA1 cells were exposed for one 16 hour period to serum free medium containing 100, 50, 10, 5, and 1 μg NNK/mL. […] Furthermore, the gradual pace of these changes at 1 μg/mL allows a passage by passage study of both early and late events in the process of NNK-induced transformation. Thus, the results presented below were obtained with BMRPA1 cells exposed once for 16 h to 1 μg NNK/mL FBS-free medium.

The test system of series [3] is Nu/Nu mice. In words: Tumorigenicity in Nu/Nu mice. The series is classed as in vivo, mouse. As to conditions: 10^7 cloned BMRPA1.NNK cells injected s.c. The method, then:
Nu/Nu mice (7 wks of age) were obtained from Harlan laboratories (Indianapolis, Ind.). The cells used for injection were released by Trypsin-EDTA, washed in cRPMI, and resuspended in PBS at 10^8 cells/mL. Each mouse tested was injected subcutaneously (s.c.) with 0.1 ml of this cell suspension. The animals were inspected for tumor development daily during the first 4 weeks, and thereafter at weekly intervals. Small pieces of the tumors (1-2 mm.) were cut from the core of the tumors and placed in 4% pafaformaldehyde overnight at 4 C. The tissue was then washed in PBS, and placed in 30% sucrose for another 24 h. Sections of tumor tissue frozen in Lipshaw embedding matrix (Pittsburgh, Pa.) were made with a Jung cryostat (Leica), placed on gelatin coated slides, and stored at −20 C. H&E staining was done according to standard procedures.
Cells growing on agar often have the ability to grow as tumors in Nu/Nu mice (Shin et al., 1975; Colburn et al., 1978). The ability of cells to grow in Nu/Nu mice as tumors is believed to be a strong indication of malignant transformation (Chung, 1986). Consequently, 10^7 cloned, live BMRPA1.NNK cells were injected subcutaneously (s.c.) in the posterior flank region of Nu/Nu mice. Another group of mice was injected s.c. under similar conditions with untransformed BMRPA1 cells. […]

Series [4] has as its system BMRPA1 cells. In words: Anchorage independent colony formation on agar. The series is classed as cell-based, rat. As to conditions: NNK-treated BMRPA1 cells; days after seeding 9; 30 sequential 1 mm^2 fields, average of 5 TCFs ± SEM. The method, then:
Aliquots of 4 ml of 0.5% agar-medium mixture (agar was autoclaved in 64 mL H2O, cooled in a water bath to 50° C., and added to 15 mL 5× cRPMI, 19 mL FBS and 1 mL P/S) were poured into 25 cm^2 TCFs and allowed to harden overnight at 4° C. Prior to plating the cells, the flasks were placed in the COT-Air incubator for up to 5 h at 37° C. to facilitate equilibration of pH and temperature. Cells were collected by Trypsin-EDTA, 0.1 mL, of cell suspension (40000/mL cells in cRPMI) was dispersed carefully over the agar surface of each flask and the cultures were returned to the 37° C. incubator with […]-5% CO2. After 24 h, the agar-coated TCFs were inverted to allow drainage of excess medium. The cultures were examined microscopically after 9 d and 14 d for growth of colonies using a Zeiss inverted microscope.
The ability of the cloned BMRPA.1NNK and untreated BMRPA1 cells to grow on agar was examined by dispersing cells at low density onto soft agar (see Example 1).

Series [5] deals with BMRPA1 cells. In words: BrdU incorporation (FACS). The format is cell-based, rat. As to conditions: NNK-treated vs untransformed BMRPA1 cells. As for the experimental part: Cells (5×10^4) were plated in 60 mm TCD, and allowed to grow in cRPMI-10% FBS. […] Briefly, 10^6 trypsin-EDTA released cells were washed twice in PBS-1% BSA, fixed in 70% ethanol for 30 min, and resuspended in RNAase A (0.1 mg/mL) for 30 min at 37° C. After washing the cells, their DNA was denatured with 2N HCl/Triton X-100 for 30 min, and neutralized with 0.1 M Na2B4O7.10H2O, pH 8.5. The cells were then washed in PBS-1% BSA with 0.5% Tween 20, and resuspended in 50 uL of 0.5% Tween in PBS-1% BSA solution with 20 uL of FITC-AntiBrdU antibody. After 45 min at 37° C., the cells were washed, resuspended in 1 mL of Na Citrate buffer containing Propidium Iodide (0.005 mg/mL) and RNAase A (0.1 mg/mL). Fluorescent activated cell sorting or flow cytometry (FACS) analysis to detect the incorporated BrdU and PI staining was performed by using a FACScan analyzer from Becton Dickinson Co. equipped with an Argon ion laser using excitation wavelength of 488 nm. Data analysis was performed using the LYSYS II program.
The measurement of BrdU incorporation in RNAase treated cells is routinely used to assess DNA synthesis during the S phase of proliferating cells (Alberts B., Johnson, A., Lewis, J., Raff, M., Roberts, K., Walter, P., 2002, Molecular Biology of the Cell. Garland Science, Taylor and Francis, 4th ed., NY). […]
A general note: Uptake of a labelled nucleoside into DNA is a usual measure of proliferation.

Take `CN(CCCC(=O)c1cccnc1)N=O` [NNK, 4-(methyl-nitrosamino)-1-(3-pyridyl)-1-butanone]: in series [1], the “cell growth at 1%, 5%, and 10% FBS” value is on record as “selective growth advantage”. The “phenotypical changes (neoplastic transformation)” value in series [2] (1 μg/ml, slower rate, over several weeks) is reported as “phenotypical changes characteristic of neoplastic transformation”. The cytotoxic changes result in series [2] (5, and 1 μg NNK/mL) is on record as “considerably less”. Besides, the “phenotypical changes (neoplastic transformation)” value in series [2] (100, 50, 10 μg NNK/ml, within a week) is recorded as “phenotypical changes indicative of neoplastic transformation”. For the same compound, the cytotoxic changes result in series [2] (larger concentrations (100, 50, 10 μg NNK/mL), serum free medium) was “cylotoxic changes”. Also, in series [3], the “# of mice with metastasis/# of mice tested” value is given as 1/6 and the “# of mice with tumor/# of mice tested” value was 3/6. In series [4], the “# of colonies* formed <50 cells” value is on record as 14, the “# of colonies* formed >50 cells” value is 15.8 ± 2.5 and the “# of colonies* formed Total” value worked out at 17.3 ± 5.2. For the same compound, the “proliferative changes (BrdU incorporation)” value in series [5] was “permanent hyperproliferative changes”.

The record behind these values is patent US20170022288A9, “PANCREATIC CANCER ASSOCIATED ANTIGEN, ANTIBODY THERETO, AND DIAGNOSTIC AND TREATMENT METHODS” (priority 2003, published 2017).
